How the values were obtained:
[1] = test system: Myeloperoxidase (MPO) activity; test: SCI: myeloperoxidase activity (neutrophil infiltration); assay type: in vivo, mouse; settings: SCI mice, 24 hours; dosing as E50; ICI 182,780 = co-administration with 17β-estradiol
Procedure: Mice were anaesthetized using chloral hydrate (400 mg/kg body weight) (Genovese 2006). A longitudinal incision was made on the midline of the back, exposing the paravertebral muscles. These muscles were dissected away exposing T5-T8 vertebrae. The spinal cord was exposed via a four-level T6-T7 laminectomy and SCI was produced by extradural compression using an aneurysm clip with a closing force of 24 g. Following surgery, 1 ml of saline was administered subcutaneously in order to replace the blood volume lost during surgery. During the surgery and recovery from anesthesia, the mice were placed on a warm heating pad and covered with a warm towel. The mice were singly housed in a temperature-controlled room at 27° C. and survival was measured over a period of 10 days. Food and water were provided to the mice ad libitum. During this time period, the animals' bladders were manually voided twice a day until the mice were able to regain normal bladder function. In all injured groups, the spinal cord was compressed for 1 min. […] Myeloperoxidase (MPO) activity, an indicator of PMN accumulation, was determined as previously described (Mullane 1985) 24 h after SCI. […] The rate of change in absorbance was measured spectrophotometrically at 650 nm. MPO activity was defined as the quantity of enzyme degrading 1 μmol of peroxide per minute at 37° C. and was expressed in milliunits/g of wet tissue.

[2] = test system: TNF-α, IL-1β, IL-6, MCP-1; test: SCI: quantitative real time PCR of cytokines and chemokines in spinal cord; settings: SCI mice, 24 h; dosing as E50; ICI 182,780 = co-administration with 17β-estradiol
Procedure: A longitudinal incision was made on the midline of the back, exposing the paravertebral muscles. These muscles were dissected away exposing T5-T8 vertebrae. […] Following surgery, 1 ml of saline was administered subcutaneously in order to replace the blood volume lost during surgery. During the surgery and recovery from anesthesia, the mice were placed on a warm heating pad and covered with a warm towel. The mice were singly housed in a temperature-controlled room at 27° C. and survival was measured over a period of 10 days. Food and water were provided to the mice ad libitum. During this time period, the animals' bladders were manually voided twice a day until the mice were able to regain normal bladder function. In all injured groups, the spinal cord was compressed for 1 min. Sham-injured animals were only subjected to laminectomy.
(§2) At different time points (see FIG. 30), the mice (n=10 from each group for each of the 3 time points) were sacrificed in order to evaluate the various parameters as described below.
Total cellular RNA was isolated from the aqueous phase then the levels of IL-α, TNF-α, MCP-1, IL-6 gene products were determined by Real Time PCR. The amount of each PCR product of gene target was normalized to Glyceraldehyde-3-phosphate dehydrogenase (GAPDH). The RNA extracted from spinal cord of individual mice was reverse trascripted into first strand cDNA with Random Hexamers and purified Avian Myeloblastosis Virus Reverse Transcriptase (Takara, Japan) in 20 ml of reaction after a DNAse treatment and stored at −80° C. until use. Primers pair for each cytokine was designed using the software Oligo (Molecular Biology Insights, Cascade, Colo., USA). The PCR reactions were performed using the following cycle conditions: a denaturation step for 15 minutes at 95° C. and 40 cycles of 30 seconds denaturation at 94° C., 30 seconds annealing (TNF-á 61° C., IL-6 54° C., IL-1β 61° C., MCP-1 54° C., GADPH 56° C.), 15 sec at 72° C. and 7 minutes of final extension at 72° C. The PCR products were visualized by electrophoresis on agarose gel 2% stained by ethidium bromide. The purified PCR products were cloned into a plasmid vector, transformed into the E. coli TOP 10 (Invitrogen) and purified with Turbo Kit (QBIOgene, Calif., USA). The recombinant plasmid was linearized upstream the target sequence using the restriction endonuclease PmeI (Fermentas, Canada). Tenfold dilutions of recombinant plasmid from 10^9 copies down to 10^1 copies were used as standards. The real time PCR assay was developed and evaluated on the Rotor-Gene 3000 system (Corbett Research, Australia). […] The signal was acquired on the FAM channel (multichannel machine) (source, 470 nm; detector, 510 nm; gain set to 5) with the fluorescence reading taken at the end of each 72° C. step. […]

Adult male CD1 mice = test: Spinal cord injury (SCI): light microscopy, histological score, Luxol fast blue; assay type: in vivo, mouse
Procedure: (§1) Mice were anaesthetized using chloral hydrate (400 mg/kg body weight) (Genovese 2006). A longitudinal incision was made on the midline of the back, exposing the paravertebral muscles. These muscles were dissected away exposing T5-T8 vertebrae. The spinal cord was exposed via a four-level T6-T7 laminectomy and SCI was produced by extradural compression using an aneurysm clip with a closing force of 24 g. Following surgery, 1 ml of saline was administered subcutaneously in order to replace the blood volume lost during surgery. During the surgery and recovery from anesthesia, the mice were placed on a warm heating pad and covered with a warm towel. The mice were singly housed in a temperature-controlled room at 27° C. and survival was measured over a period of 10 days. […]
The segments of each spinal cord were evaluated by an experienced histopathologist (RO). Damaged neurons were counted and the histopathologic changes of the gray matter were scored on a 6-point scale (Sirin 2000): 0, no lesion observed, 1, gray matter contained 1 to 5 eosinophilic neurons; 2, gray matter contained 5 to 10 eosinophilic neurons; 3, gray matter contained more than 10 eosinophilic neurons; 4, small infarction (less than one third of the gray matter area); 5, moderate infarction; (one third to one half of the gray matter area); 6, large infarction (more than half of the gray matter area). […]

[3] = test system: Nitrotyrosine, iNOS, MPO, COX-2, Bax and Bcl-2; test: SCI: immunohistochemical localization of nitrotyrosine, iNOS, MPO, COX-2, Bax and Bcl-2; settings: ICI 182,780 = co-administration with 17β-estradiol
Procedure: A longitudinal incision was made on the midline of the back, exposing the paravertebral muscles. These muscles were dissected away exposing T5-T8 vertebrae. […] Following surgery, 1 ml of saline was administered subcutaneously in order to replace the blood volume lost during surgery. During the surgery and recovery from anesthesia, the mice were placed on a warm heating pad and covered with a warm towel. […] Food and water were provided to the mice ad libitum. During this time period, the animals' bladders were manually voided twice a day until the mice were able to regain normal bladder function. In all injured groups, the spinal cord was compressed for 1 min. Sham-injured animals were only subjected to laminectomy.
as §2
At 24 h after SCI, the tissues were fixed in 10% (w/v) PBS-buffered formaldehyde and 8-μm sections were prepared from paraffin embedded tissues. After deparaffinization, endogenous peroxidase was quenched with 0.3% (v/v) hydrogen peroxide in 60% (v/v) methanol for 30 min. The sections were permeabilized with 0.1% (w/v) Triton X-100 in PBS for 20 min. Non-specific adsorption was minimized by incubating the section in 2% (v/v) normal goat serum in PBS for 20 min. Endogenous biotin or avidin binding sites were blocked by sequential incubation for 15 min with biotin and avidin (DBA), respectively. Sections were incubated overnight with antinitrotyrosine rabbit polyclonal antibody (Upstate; 1:500 in PBS, v/v), with anti-iNOS polyclonal antibody rat (1:500 in PBS, v/v), anti-COX-2 monoclonal antibody (1:500 in PBS, v/v), anti-Bax rabbit polyclonal antibody (Santa Cruz Biotechnology, Inc., Santa Cruz, Calif.; 1:500 in PBS, v/v), or with anti-Bcl-2 polyclonal antibody rat (Santa Cruz Biotechnology, Inc., Santa Cruz, Calif.; 1:500 in PBS, v/v), or with anti-MPO polyclonal antibody (Santa Cruz Biotechnology, Inc., Santa Cruz, Calif.; 1:500 in PBS, v/v). Sections were washed with PBS, and incubated with secondary antibody. Specific labeling was detected with a biotin-conjugated goat anti-rabbit IgG and avidin-biotin peroxidase complex (DBA) and counterstained whith nuclear fast red. To verify the binding specificity for nitrotyrosine, iNOS, COX-2, Bax, and Bcl-2, some sections were also incubated with only the primary antibody (no secondary) or with only the secondary antibody (no primary).

Bax and Bcl-2 = test: SCI: Western blot analysis for Bax and Bcl-2; assay type: in vivo, mouse; settings: spinal cord, 24 hours after SCI; ICI 182,780 = co-administration with 17β-estradiol
Procedure: as §1, with “days. Food and water were provided to the mice ad libitum.” for “days.”
For Western blot analysis, 70 μg protein of lysates were mixed with gel loading buffer (50 mM Tris, 10% (w/v), sodium dodecyl sulphate (SDS), 10% (w/v) glycerol, 10% (v/v) 2- mercaptoethanol, 2 mg/ml bromophenol), boiled for 5 min, and subjected to SDSPAGE (12% polyacrylamide). […] The protein bands of Bax (23˜kDa), or Bcl -2 (26˜kDa) on x-ray film were scanned and densitometrically analyzed with a model GS-700 imaging densitometer (Bio-Rad Laboratories). […]

[4] = SCI mice, 24 hours, dosing as E50
[5] = spinal cord, 24 hours after SCI

Q: Which results are given for `C[C@]12CC[C@@H]3c4ccc(O)cc4C[C@@H](CCCCCCCCC[S+]([O-])CCCC(F)(F)C(F)(F)F)[C@H]3[C@@H]1CC[C@@H]2O` (stereo partly drawn) [ICI 182,780]?
A: MPO activity in the spinal cord (neutrophil infiltration) [1]: significantly blocked the effect of the 17β-estradiol on the neutrophils infiltration; tissue levels of IL-1β (mRNA) [2]: significantly blocked the effect of the 17β-estradiol; tissue levels of IL-6 (mRNA) [2]: significantly blocked the effect of the 17β-estradiol; tissue levels of MCP-1 (mRNA) [2]: significantly blocked the effect of the 17β-estradiol; tissue levels of TNF-α (mRNA) [2]: significantly blocked the effect of the 17β-estradiol; histological alteration of spinal cord (H&E, histological score) (Adult male CD1 mice; 24 hours after injury, 17β-estradiol 300 μg/kg s.c. 1 h before, 3 h and 6 h after SCI, ICI 182,780 rows: 500 μg/kg s.c. 1 hour before 17β-estradiol (co-administration)): significantly blocked the effect of the 17β-estradiol on the histological alteration; myelin structure (Luxol fast blue staining) (Adult male CD1 mice; 24 hours, dosing as E50, ICI 182,780 = co-administration with 17β-estradiol): significantly blocked the effect of the 17β-estradiol; immunohistological staining for COX-2 [3, 4]: significantly blocked the effect of the 17β-estradiol on COX-2 expression; immunohistological staining for iNOS [3, 4]: significantly blocked the effect of the 17β-estradiol on iNOS expression; immunohistological staining for nitrotyrosine [3, 4]: significantly blocked the effect of the 17β-estradiol; staining for MPO [3, 4]: significantly blocked the effect of the 17β-estradiol on the MPO; immunohistological staining for Bax [3, 5]: significantly blocked the effect of the 17β-estradiol; immunohistological staining for Bcl-2 [3, 5]: significantly blocked the effect of the 17β-estradiol; Bax expression (Western blot) (Bax and Bcl-2): significantly blocked the effect of the 17β-estradiol on Bax expression; Bcl-2 expression (Western blot) (Bax and Bcl-2): significantly blocked the effect of the 17β-estradiol on the Bcl2 expression

From patent US9301970B2, “Methods and compositions for treating trauma-hemorrhage using estrogen and derivatives thereof” (The UAB Research Foundation, priority 2006, dated 2016)
